Laboratory results taken from article PMC11266714, “Extraction optimization and reactivity of 7α-acetoxy-6β-hydroxyroyleanone and ability of its derivatives to modulate PKC isoforms” (Scientific Reports, 2024).
Like-named read-outs stand apart in the source and are kept apart here.

Experiments:
PKC-ζ = biological target: T1, PKC-ζ (Mus musculus, UniProt Q02956); assay: Yeast PKC assay, PKC-ζ; assay type: cell-based
T1 construct: expressed in transfected cells; host or cells: Saccharomyces cerevisiae
T1 sequence (Q02956 1-592): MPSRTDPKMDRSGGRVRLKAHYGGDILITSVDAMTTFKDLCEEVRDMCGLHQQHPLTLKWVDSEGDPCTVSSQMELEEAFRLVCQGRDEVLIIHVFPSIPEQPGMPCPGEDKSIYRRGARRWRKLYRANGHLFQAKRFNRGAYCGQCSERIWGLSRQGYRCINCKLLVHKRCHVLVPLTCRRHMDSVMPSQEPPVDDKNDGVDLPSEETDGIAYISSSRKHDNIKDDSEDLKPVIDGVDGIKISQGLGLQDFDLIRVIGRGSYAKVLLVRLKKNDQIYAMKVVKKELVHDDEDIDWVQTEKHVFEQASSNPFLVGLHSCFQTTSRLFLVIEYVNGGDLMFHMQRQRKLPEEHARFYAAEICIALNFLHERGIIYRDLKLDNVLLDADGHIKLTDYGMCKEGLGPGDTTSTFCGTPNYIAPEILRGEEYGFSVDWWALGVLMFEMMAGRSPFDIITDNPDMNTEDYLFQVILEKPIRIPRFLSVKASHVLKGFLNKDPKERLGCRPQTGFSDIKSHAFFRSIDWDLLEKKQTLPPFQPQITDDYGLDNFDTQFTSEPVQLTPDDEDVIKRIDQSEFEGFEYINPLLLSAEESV
Text: (§1) PKC isoforms are key targets for cancer therapy due to their significant roles in cancer development and progression. The selective-PKC-δ activation observed for RoyBz is well established. Nonetheless, it is important to understand the effect of Roy on PKC isoforms. Due to the specificity of the assay, it was decided to evaluate only few compounds: the natural ones Roy and DeRoy and two derivatives, one aromatic ester RoyBz and one aliphatic ester RoyPr[27] as PKC-α, -βI, -δ, -ε, and -ζ activators using the yeast PKC assay.
(§2) For the determination of EC50 values were considered the concentration of compound that caused 50% of the maximal growth inhibition caused by the positive controls (phorbol 12-myristate 13-acetate, PMA, for cPKCs and nPKCs; arachidonic acid, ARA, for PKCζ), which was set as 100%. Data are mean ± SEM of four independent experiments. nt, not tested; ND, non-determinable (when the maximal response achieved was lower than 50% growth inhibition).
(§3) The royleanones Roy, RoyBz and RoyPr were tested on the yeast assay as reported in[3]. Briefly, Saccharomyces cerevisiae cells individually expressing mammalian PKC-α, -βI, -δ, -ε, or -ζ, and control yeast (transformed with empty vector) obtained in previous works were used. Cells were grown in galactose selective medium in the presence of 0.1—30 μM of compounds (or 0.1% DMSO only) for approximately 42 h. Yeast growth was analyzed by counting the number of colony-forming units, after 2 days incubation at 30 °C. The growth of yeast transformed with the empty vector (control) was considered as 100%. From the dose–response curves obtained, EC50 (half maximal effective concentration) values were determined for the tested compounds.

[1] = test system: MCF-7 human breast adenocarcinoma cells; details: cited from earlier work
PKC-ε = biological target: T2, PKC-ε (Homo sapiens, UniProt Q02156); assay: Yeast PKC assay, PKC-ε; assay type: cell-based
T2 construct: expressed in transfected cells; host or cells: Saccharomyces cerevisiae
T2 sequence (Q02156 1-737): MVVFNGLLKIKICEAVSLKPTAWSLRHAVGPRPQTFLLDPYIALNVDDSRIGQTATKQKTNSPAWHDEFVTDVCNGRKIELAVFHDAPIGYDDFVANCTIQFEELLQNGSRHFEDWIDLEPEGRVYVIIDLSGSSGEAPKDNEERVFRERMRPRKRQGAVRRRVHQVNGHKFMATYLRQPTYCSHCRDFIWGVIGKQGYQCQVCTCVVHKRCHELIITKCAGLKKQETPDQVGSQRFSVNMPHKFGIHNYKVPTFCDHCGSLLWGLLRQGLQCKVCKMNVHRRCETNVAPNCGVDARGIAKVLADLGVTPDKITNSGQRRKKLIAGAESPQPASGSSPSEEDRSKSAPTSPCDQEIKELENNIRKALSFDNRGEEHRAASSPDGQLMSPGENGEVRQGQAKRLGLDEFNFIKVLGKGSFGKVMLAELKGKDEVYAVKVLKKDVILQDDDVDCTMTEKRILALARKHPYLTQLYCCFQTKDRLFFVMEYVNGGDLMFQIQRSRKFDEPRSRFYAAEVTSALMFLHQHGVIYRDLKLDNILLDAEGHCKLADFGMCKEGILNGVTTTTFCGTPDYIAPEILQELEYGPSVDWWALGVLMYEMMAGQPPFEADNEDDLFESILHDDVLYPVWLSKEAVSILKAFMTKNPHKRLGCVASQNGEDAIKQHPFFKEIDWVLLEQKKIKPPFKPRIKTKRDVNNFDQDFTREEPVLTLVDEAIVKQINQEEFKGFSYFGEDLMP
Text: as §1, §2, §3

PKC-α = biological target: T3, PKC-α (Bos taurus, UniProt P04409); assay: Yeast PKC assay, PKC-α; assay type: cell-based, yeast (Saccharomyces cerevisiae)
T3 construct: expressed in transfected cells; host or cells: Saccharomyces cerevisiae
Text: as §1, §2, §3

PKC-δ [2] = biological target: T4, PKC-δ (Rattus norvegicus, UniProt P09215); assay: Yeast PKC assay, PKC-δ; assay type: cell-based
T4 construct: expressed in transfected cells; host or cells: Saccharomyces cerevisiae
T4 sequence (P09215 whole entry): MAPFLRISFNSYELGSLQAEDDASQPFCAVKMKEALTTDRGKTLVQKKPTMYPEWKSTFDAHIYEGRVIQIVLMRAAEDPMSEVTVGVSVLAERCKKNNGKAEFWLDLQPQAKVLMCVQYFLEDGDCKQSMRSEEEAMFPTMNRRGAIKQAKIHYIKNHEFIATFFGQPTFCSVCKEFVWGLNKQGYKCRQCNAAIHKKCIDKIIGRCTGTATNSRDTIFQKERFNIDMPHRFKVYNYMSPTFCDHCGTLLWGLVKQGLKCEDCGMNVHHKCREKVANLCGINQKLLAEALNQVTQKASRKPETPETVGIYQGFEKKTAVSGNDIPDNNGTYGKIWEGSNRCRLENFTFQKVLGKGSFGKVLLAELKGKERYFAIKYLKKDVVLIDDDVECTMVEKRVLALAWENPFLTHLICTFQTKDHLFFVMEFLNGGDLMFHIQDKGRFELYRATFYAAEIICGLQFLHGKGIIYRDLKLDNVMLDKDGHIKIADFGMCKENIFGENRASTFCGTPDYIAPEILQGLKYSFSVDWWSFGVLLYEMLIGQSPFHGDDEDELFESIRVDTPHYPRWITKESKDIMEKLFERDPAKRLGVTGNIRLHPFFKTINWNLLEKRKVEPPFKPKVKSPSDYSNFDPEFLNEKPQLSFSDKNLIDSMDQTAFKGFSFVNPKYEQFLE
Text: as §1, §2, §3

[3] = test system: MCF-7 human breast adenocarcinoma cells; assay: Sulforhodamine B (SRB) cell proliferation assay, MCF-7; assay type: cell-based
Protocol: (§4) The cytotoxic effect (IC50 values, Table 4) was determined from dose–response curves.
(§5) Royleanones and doxorubicin (Doxo) were tested on human breast adenocarcinoma lines. […] HFF‐1 cells were cultured in DMEM/F‐12 supplemented with 10% FBS. All cells were maintained at 37 °C in a humidified atmosphere of 5% CO2. Cells were routinely tested for mycoplasma infection using the MycoAlert™ PLUS mycoplasma detection kit (Lonza).
(§6) For the evaluation of the effect of the compounds on cell proliferation, the SRB assay was performed. […] Cells were treated for 48 h with serial dilutions of the compounds (ranging from 0.1 to 30.0 µM). The effects on cell proliferation were assessed by SRB assay, as described, and IC50 values were determined for each cell line using the GraphPad Prism software version 7.0 (La Jolla, CA, USA).

[4] = test system: MDA-MB-231 human breast adenocarcinoma cells; assay: Sulforhodamine B (SRB) cell proliferation assay, MDA-MB-231; assay type: cell-based
Protocol: as §4, §5, §6

[5] = test system: MDA-MB-468 human breast adenocarcinoma cells; assay: Sulforhodamine B (SRB) cell proliferation assay, MDA-MB-468; assay type: cell-based
Protocol: as §4, §5, §6

[6] = test system: non-tumorigenic foreskin fibroblasts HFF-1 cells; assay: Sulforhodamine B (SRB) cell proliferation assay, HFF-1; assay type: cell-based, human
Protocol: as §4, §5, §6

PKC-βI = biological target: T5, PKC-βI (Rattus norvegicus, UniProt P68403); assay: Yeast PKC assay, PKC-βI; assay type: cell-based, yeast (Saccharomyces cerevisiae)
T5 construct: expressed in transfected cells; host or cells: Saccharomyces cerevisiae
T5 sequence (P68403 whole entry): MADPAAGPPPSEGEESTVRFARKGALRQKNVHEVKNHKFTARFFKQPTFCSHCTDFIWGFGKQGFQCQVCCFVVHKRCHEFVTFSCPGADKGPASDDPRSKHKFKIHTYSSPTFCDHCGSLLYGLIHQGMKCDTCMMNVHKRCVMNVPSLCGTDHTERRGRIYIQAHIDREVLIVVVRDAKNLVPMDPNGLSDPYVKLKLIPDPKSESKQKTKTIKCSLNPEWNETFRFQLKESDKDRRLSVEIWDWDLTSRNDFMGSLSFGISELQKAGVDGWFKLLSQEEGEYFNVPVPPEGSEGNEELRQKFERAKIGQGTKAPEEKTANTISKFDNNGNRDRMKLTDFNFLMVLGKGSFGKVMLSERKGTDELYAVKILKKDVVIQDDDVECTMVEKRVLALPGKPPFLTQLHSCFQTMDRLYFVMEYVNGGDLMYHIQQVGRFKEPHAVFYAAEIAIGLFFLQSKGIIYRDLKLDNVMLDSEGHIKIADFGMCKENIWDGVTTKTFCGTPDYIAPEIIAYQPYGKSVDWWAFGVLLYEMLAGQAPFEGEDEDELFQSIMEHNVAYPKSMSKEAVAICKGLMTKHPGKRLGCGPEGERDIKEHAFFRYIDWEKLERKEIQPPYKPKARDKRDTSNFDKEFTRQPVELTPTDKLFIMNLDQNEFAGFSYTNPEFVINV
Text: as §1, §2, §3

PKC-δ [7] = biological target: T4, PKC-δ; parameters: method as in PMID 29348560; details: yeast PKC assay; cited from earlier work
[8] = yeast growth inhibition, 50% of maximal effect of ARA, mean ± SEM, four experiments, ND = maximal response lower than 50% growth inhibition, read-out: EC50 (nM) PKC-ζ
[9] = yeast growth inhibition, 50% of maximal effect of PMA, mean ± SEM, four experiments, ND = maximal response lower than 50% growth inhibition, read-out: EC50 (nM) PKC-ε
[10] = yeast growth inhibition, 50% of maximal effect of PMA, mean ± SEM, four experiments, ND = maximal response lower than 50% growth inhibition, read-out: EC50 (nM) PKC-α
[11] = yeast growth inhibition, 50% of maximal effect of PMA, mean ± SEM, four experiments, ND = maximal response lower than 50% growth inhibition, read-out: EC50 (nM) PKC-δ
[12] = Homo sapiens, MCF7, 48 h treatment
[13] = Homo sapiens, MDA-MB-231, 48 h, 48 h treatment
[14] = Homo sapiens, MDA-MB-468, 48 h, 48 h treatment
[15] = Homo sapiens, MDA-MB-231, 48 h treatment
[16] = Homo sapiens, HFF-1, 48 h treatment
[17] = Homo sapiens, MDA-MB-468, 48 h treatment
[18] = yeast growth inhibition, 50% of maximal effect of PMA, mean ± SEM, four experiments, ND = maximal response lower than 50% growth inhibition, read-out: EC50 (nM) PKC-βI

## CCCCC/C=C\C/C=C\C/C=C\C/C=C\CCCC(=O)O [ARA, arachidonic acid, reference compound]
PKC-ζ; [8]
  EC50: 205 ± 32.6 nM

## CC(C)C1=C(O)C(=O)C2=C(C=C[C@H]3C(C)(C)CCC[C@]23C)C1=O [DeRoy, 6,7-dehydroroyleanone]
PKC-ζ
  EC50: 43.8 ± 2.32 nM
[1]
  IC50: 60400 ± 3690 nM
PKC-ε; [9]
  EC50: 5.8 ± 0.7 nM
PKC-α; [10]
  EC50: 15 ± 1.9 nM
PKC-δ [2]; [11]
  EC50: 3.1 ± 0.6 nM

## CC(C)C1=C(O)C(=O)C2=C(C1=O)[C@H](O)[C@@H](O)[C@H]1C(C)(C)CCC[C@]21C [DiRoy, 6β,7α-dihydroxyroyleanone]
[3]; [12]
  IC50: > 20000 nM
[4]; [13]
  IC50: > 20000 nM
[5]; [14]
  IC50: > 20000 nM

## COc1cccc2c1C(=O)c1c(O)c3c(c(O)c1C2=O)C[C@@](O)(C(=O)CO)C[C@@H]3O[C@H]1C[C@H](N)[C@H](O)[C@H](C)O1 [Doxo, Doxorubicin, reference compound]
[3]; [12]
  IC50: 600 ± 10 nM
[4]; [15]
  IC50: 1200 ± 50 nM
[6]; [16]
  IC50: 100 ± 120 nM
[5]; [17]
  IC50: 300 ± 40 nM

## CCCCCCCCCCCCCC(=O)O[C@@H]1[C@@H](C)[C@@]2(O)[C@@H](C=C(CO)C[C@]3(O)C(=O)C(C)=C[C@@H]23)[C@@H]2C(C)(C)[C@]12OC(C)=O [PMA, phorbol 12-myristate 13-acetate, reference compound]
PKC-ε
  EC50: 1680 ± 46.5 nM
PKC-α
  EC50: 112 ± 18.4 nM
PKC-δ [2]
  EC50: 574 ± 36.7 nM
PKC-βI
  EC50: 243 ± 69.1 nM

## CC(=O)OC1C2=C(C(=O)C(O)=C(C(C)C)C2=O)C2(C)CCCC(C)(C)C2C1O (stereo not drawn) [Roy, 7α-acetoxy-6β-hydroxyroyleanone]
[3]; [12]
  IC50: 2090 ± 420 nM
PKC-ζ; [8]
  EC50: 4110 ± 159 nM
PKC-ε; [9]
  EC50: 994 ± 63 nM
PKC-α; [10]
  EC50: 350 ± 42 nM
[4]; 48 h treatment
  IC50: 350 ± 120 nM
[4]; [13]
  IC50: 300 nM
[6]; [16]
  IC50: 1020 ± 280 nM
[5]; 48 h treatment
  IC50: 300 ± 160 nM
[5]; [14]
  IC50: 350 nM
PKC-βI; [18]
  EC50: 423 ± 67 nM

## CC(=O)OC1=C(C(C)C)C(=O)C2=C(C1=O)C1(C)CCCC(C)(C)C1C(O)C2OC(C)=O (stereo not drawn) [Roy-12-Ac, 7α-acetoxy-6β-hydroxy-12-O-acetylroyleanone]
[3]; 48 h treatment
  IC50: 5670 ± 240 nM
[4]; 48 h treatment
  IC50: 2430 ± 150 nM
[6]; 48 h treatment
  IC50: 600 ± 40 nM
[5]; 48 h treatment
  IC50: 1600 ± 160 nM

## CC(=O)O[C@H]1C2=C(C(=O)C(OC(=O)c3ccccc3)=C(C(C)C)C2=O)[C@@]2(C)CCCC(C)(C)[C@@H]2[C@@H]1O [Roy-12-Bz, 7α-acetoxy-6β-hydroxy-12-O-benzoylroyleanone]
[3]; [12]
  IC50: 4320 ± 240 nM
[4]; [13]
  IC50: 1650 ± 150 nM
[6]; [16]
  IC50: 1160 ± 220 nM
[5]; [14]
  IC50: 1280 nM

## CC(=O)OC1=C(C(C)C)C(=O)C2=C(C1=O)C1(C)CCCC(C)(C)C1C(OC(C)=O)C2OC(C)=O (stereo not drawn) [RoyAc, 7α,6β-diacetoxy-12-O-acetylroyleanone]
[3]; 48 h treatment
  IC50: 4250 ± 570 nM
[4]; 48 h treatment
  IC50: 1860 ± 90 nM
[6]; 48 h treatment
  IC50: 4970 ± 340 nM
[5]; 48 h treatment
  IC50: 3250 ± 200 nM

## CC(=O)O[C@H]1C2=C(C(=O)C(OC(=O)c3ccccc3)=C(C(C)C)C2=O)[C@@]2(C)CCCC(C)(C)[C@@H]2[C@@H]1OC(=O)c1ccccc1 [RoyBz, 7α-acetoxy-6β-benzoyloxy-12-O-benzoylroyleanone]
[3]; [12]
  IC50: 1660 ± 100 nM
PKC-δ [7]
  EC50: 108 nM
[4]; [15]
  IC50: 1500 ± 850 nM
[6]; [16]
  IC50: 3580 ± 270 nM
[5]; [17]
  IC50: 1400 ± 80 nM

## CCC(=O)OC1=C(C(C)C)C(=O)C2=C(C1=O)C1(C)CCCC(C)(C)C1C(OC(=O)CC)C2OC(C)=O (stereo not drawn) [RoyPr, 7α-acetoxy-6β-propanoyloxy-12-O-propanoylroyleanone]
[1]
  IC50: 28300 ± 2400 nM
PKC-ε; [9]
  EC50: 770 ± 46 nM
PKC-α; [10]
  EC50: 195 ± 16 nM
PKC-δ [2]; [11]
  EC50: 325 ± 49 nM
PKC-βI; [18]
  EC50: 229 ± 21 nM
